# Like-named read-outs stand apart in the source and are kept apart here.
# Columns and labels:
# [1] = Octanol/water partition coefficient of radiolabeled gallium complexes; type: physicochemical
# Protocol: Octanol/water partition coefficients were measured by vortex mixing 1 mL of 1-octanol and 1 mL of isotonic Tris buffer (pH 7.0) with a 1-5 μL sample of the radiolabeled gallium complex. Following centrifugation at >1200 g for 5 minutes, the octanol and aqueous phases were sampled and counted in an automatic well counter.
# [2] = rat, i.v.; for % injected dose in heart, 1 min / % injected dose in heart, 2 h: preliminary studies
# Protocol: The gallium-67 complexes are prepared by ligand exchange from gallium-67 chloride, employing the tris(acetylacetonato)gallium(III) complex as an intermediate. The Ga-67 acetylacetonate in ethanol is reacted with the chelating ligand or ligand precursor at elevated temperature to form rapidly the desired gallium radiopharmaceutical. […] The biodistribution of several radiopharmaceuticals was determined in rats following intravenous injection using techniques previously described (M. A. Green, Nuclear Medicine and Biology 14:59-61, 1987; E. John and M. A. Green, J. Medicinal Chemistry, 33:1764-1770, 1990).
# Under ether anesthesia, 1 to 3 μCi (0.1-0.2 mL) of no-carrier-added Ga-67 compound was administered by bolus injection into the femoral vein of male Sprague-Dawley rats. The ether anesthetized rats were sacrificed by decapitation at given time intervals post-injection, organs of interest were removed, weighed, and the gallium-67 activity counted. The biodistribution was calculated as a percentage of the injected dose per gram of tissue and percentage of injected dose per organ for each sample.
compound,measurement,setting,value
"^67 GaL^+ L = [(4-deaSal)2 DM-BAPEN, ^67 GaL^+ L = [bis(diethylaminosalicylaldimino)-N,N'-bis(2,2'-dimethyl-3-aminopropyl)ethylenediamine]]",log P,[1]; 1-octanol / isotonic Tris buffer pH 7.0,2.84
same,"% Injected Dose per Gram Tissue, Blood",[2]; 1 min,1.91 ± 0.22 % Injected Dose per Gram Tissu
same,"% Injected Dose per Gram Tissue, Brain",[2]; 1 min,0.05 ± 0.01 % Injected Dose per Gram Tissu
same,"% Injected Dose per Gram Tissue, Heart",[2]; 1 min,0.85 ± 0.09 % Injected Dose per Gram Tissu
same,"% Injected Dose per Gram Tissue, Kidney (one)",[2]; 1 min,4.85 ± 0.75 % Injected Dose per Gram Tissu
same,"% Injected Dose per Gram Tissue, Liver",[2]; 1 min,4.91 ± 0.36 % Injected Dose per Gram Tissu
same,"% Injected Dose per Gram Tissue, Lungs",[2]; 1 min,4.23 ± 0.68 % Injected Dose per Gram Tissu
same,"% Injected Dose per Gram Tissue, Spleen",[2]; 1 min,1.61 ± 0.44 % Injected Dose per Gram Tissu
same,"% Injected Dose per Organ, Blood",[2]; 1 min,30.59 ± 3.45 % Injected Dose per Organ
same,"% Injected Dose per Organ, Brain",[2]; 1 min,0.08 ± 0.02 % Injected Dose per Organ
same,"% Injected Dose per Organ, Heart",[2]; 1 min,0.66 ± 0.06 % Injected Dose per Organ
same,"% Injected Dose per Organ, Kidney (one)",[2]; 1 min,4.25 ± 0.52 % Injected Dose per Organ
same,"% Injected Dose per Organ, Liver",[2]; 1 min,47.04 ± 6.53 % Injected Dose per Organ
same,"% Injected Dose per Organ, Lungs",[2]; 1 min,5.30 ± 0.23 % Injected Dose per Organ
same,"% Injected Dose per Organ, Spleen",[2]; 1 min,1.12 ± 0.34 % Injected Dose per Organ
same,"% injected dose in heart, 1 min",[2]; 1 min,0.66 ± 0.06 % injected dose
same,"% Injected Dose per Gram Tissue, Blood",[2]; 15 min,0.30 ± 0.04 % Injected Dose per Gram Tissu
same,"% Injected Dose per Gram Tissue, Brain",[2]; 15 min,0.02 ± 0.01 % Injected Dose per Gram Tissu
same,"% Injected Dose per Gram Tissue, Heart",[2]; 15 min,0.57 ± 0.05 % Injected Dose per Gram Tissu
same,"% Injected Dose per Gram Tissue, Kidney (one)",[2]; 15 min,5.55 ± 0.50 % Injected Dose per Gram Tissu
same,"% Injected Dose per Gram Tissue, Liver",[2]; 15 min,4.78 ± 1.20 % Injected Dose per Gram Tissu
same,"% Injected Dose per Gram Tissue, Lungs",[2]; 15 min,2.06 ± 0.21 % Injected Dose per Gram Tissu
same,"% Injected Dose per Gram Tissue, Spleen",[2]; 15 min,3.15 ± 0.45 % Injected Dose per Gram Tissu
same,"% Injected Dose per Organ, Blood",[2]; 15 min,5.08 ± 0.71 % Injected Dose per Organ
same,"% Injected Dose per Organ, Brain",[2]; 15 min,0.00 ± 0.00 % Injected Dose per Organ
same,"% Injected Dose per Organ, Heart",[2]; 15 min,0.46 ± 0.04 % Injected Dose per Organ
same,"% Injected Dose per Organ, Kidney (one)",[2]; 15 min,4.79 ± 0.38 % Injected Dose per Organ
same,"% Injected Dose per Organ, Liver",[2]; 15 min,50.24 ± 11.08 % Injected Dose per Organ
same,"% Injected Dose per Organ, Lungs",[2]; 15 min,2.71 ± 0.22 % Injected Dose per Organ
same,"% Injected Dose per Organ, Spleen",[2]; 15 min,2.29 ± 0.42 % Injected Dose per Organ
same,"% Injected Dose per Gram Tissue, Blood",[2]; 120 min,0.06 ± 0.01 % Injected Dose per Gram Tissu
same,"% Injected Dose per Gram Tissue, Brain",[2]; 120 min,0.00 ± 0.00 % Injected Dose per Gram Tissu
same,"% Injected Dose per Gram Tissue, Heart",[2]; 120 min,0.47 ± 0.02 % Injected Dose per Gram Tissu
same,"% Injected Dose per Gram Tissue, Kidney (one)",[2]; 120 min,5.28 ± 0.32 % Injected Dose per Gram Tissu
same,"% Injected Dose per Gram Tissue, Liver",[2]; 120 min,0.96 ± 0.14 % Injected Dose per Gram Tissu
same,"% Injected Dose per Gram Tissue, Lungs",[2]; 120 min,1.02 ± 0.13 % Injected Dose per Gram Tissu
same,"% Injected Dose per Gram Tissue, Spleen",[2]; 120 min,2.89 ± 0.21 % Injected Dose per Gram Tissu
same,"% Injected Dose per Organ, Blood",[2]; 120 min,1.06 ± 0.20 % Injected Dose per Organ
same,"% Injected Dose per Organ, Brain",[2]; 120 min,0.02 ± 0.01 % Injected Dose per Organ
same,"% Injected Dose per Organ, Heart",[2]; 120 min,0.40 ± 0.04 % Injected Dose per Organ
same,"% Injected Dose per Organ, Kidney (one)",[2]; 120 min,5.17 ± 0.19 % Injected Dose per Organ
same,"% Injected Dose per Organ, Liver",[2]; 120 min,11.06 ± 2.46 % Injected Dose per Organ
same,"% Injected Dose per Organ, Lungs",[2]; 120 min,1.31 ± 0.07 % Injected Dose per Organ
same,"% Injected Dose per Organ, Spleen",[2]; 120 min,2.09 ± 0.18 % Injected Dose per Organ
same,"% injected dose in heart, 2 h",[2],0.40 ± 0.04 % injected dose
same,Heart/Blood,"[2]; ratio, 1 min",0.45 ± 0.04
same,Heart/Liver,"[2]; ratio, 1 min",0.17 ± 0.03
same,Heart/Lungs,"[2]; ratio, 1 min",0.20 ± 0.02
same,Heart/Blood,"[2]; ratio, 15 min",1.94 ± 0.33
same,Heart/Liver,"[2]; ratio, 15 min",0.13 ± 0.04
same,Heart/Lungs,"[2]; ratio, 15 min",0.28 ± 0.04
same,Heart/Blood,"[2]; ratio, 120 min",8.06 ± 1.62
same,Heart/Liver,"[2]; ratio, 120 min",0.50 ± 0.07
same,Heart/Lungs,"[2]; ratio, 120 min",0.46 ± 0.07
CCN(CC)c1ccc(C=NCCCNCCNCCCN=Cc2ccc(N(CC)CC)cc2[O-])c([O-])c1.[67Ga+3] [(4-deaSal)2 BAPEN],log P,"[1]; octanol/tris buffer, pH 7",2.44
same,"% Injected Dose per Gram Tissue, Blood",[2]; 1 min,0.80 ± 0.01 % Injected Dose per Gram Tissu
same,"% Injected Dose per Gram Tissue, Brain",[2]; 1 min,0.04 ± 0.01 % Injected Dose per Gram Tissu
same,"% Injected Dose per Gram Tissue, Heart",[2]; 1 min,0.98 ± 0.07 % Injected Dose per Gram Tissu
same,"% Injected Dose per Gram Tissue, Kidney (one)",[2]; 1 min,7.22 ± 0.48 % Injected Dose per Gram Tissu
same,"% Injected Dose per Gram Tissue, Liver",[2]; 1 min,4.15 ± 0.25 % Injected Dose per Gram Tissu
same,"% Injected Dose per Gram Tissue, Lungs",[2]; 1 min,1.16 ± 0.06 % Injected Dose per Gram Tissu
same,"% Injected Dose per Gram Tissue, Spleen",[2]; 1 min,1.22 ± 0.47 % Injected Dose per Gram Tissu
same,"% injected dose in heart, 1 min",[2]; 1 min,0.69 ± 0.05 % injected dose
same,"% Injected Dose Per Gram of Tissue, Blood",[2]; 5 min,0.39 ± 0.05 % Injected Dose Per Gram of Tissue
same,"% Injected Dose Per Gram of Tissue, Brain",[2]; 5 min,0.02 ± 0.01 % Injected Dose Per Gram of Tissue
same,"% Injected Dose Per Gram of Tissue, Heart",[2]; 5 min,0.91 ± 0.06 % Injected Dose Per Gram of Tissue
same,"% Injected Dose Per Gram of Tissue, Kidney (1)",[2]; 5 min,7.11 ± 0.89 % Injected Dose Per Gram of Tissue
same,"% Injected Dose Per Gram of Tissue, Liver",[2]; 5 min,3.96 ± 0.28 % Injected Dose Per Gram of Tissue
same,"% Injected Dose Per Gram of Tissue, Lungs",[2]; 5 min,0.89 ± 0.19 % Injected Dose Per Gram of Tissue
same,"% Injected Dose Per Gram of Tissue, Spleen",[2]; 5 min,1.19 % Injected Dose Per Gram of Tissue
same,"% Injected Dose per Gram Tissue, Blood",[2]; 15 min,0.20 ± 0.03 % Injected Dose per Gram Tissu
same,"% Injected Dose per Gram Tissue, Brain",[2]; 15 min,0.02 ± 0.00 % Injected Dose per Gram Tissu
same,"% Injected Dose per Gram Tissue, Heart",[2]; 15 min,0.90 ± 0.06 % Injected Dose per Gram Tissu
same,"% Injected Dose per Gram Tissue, Kidney (one)",[2]; 15 min,6.82 ± 0.53 % Injected Dose per Gram Tissu
same,"% Injected Dose per Gram Tissue, Liver",[2]; 15 min,3.21 ± 0.25 % Injected Dose per Gram Tissu
same,"% Injected Dose per Gram Tissue, Lungs",[2]; 15 min,0.70 ± 0.07 % Injected Dose per Gram Tissu
same,"% Injected Dose per Gram Tissue, Spleen",[2]; 15 min,1.27 ± 0.17 % Injected Dose per Gram Tissu
same,"% Injected Dose per Gram Tissue, Blood",[2]; 120 min,0.10 ± 0.01 % Injected Dose per Gram Tissu
same,"% Injected Dose per Gram Tissue, Brain",[2]; 120 min,0.02 ± 0.01 % Injected Dose per Gram Tissu
same,"% Injected Dose per Gram Tissue, Heart",[2]; 120 min,0.92 ± 0.10 % Injected Dose per Gram Tissu
same,"% Injected Dose per Gram Tissue, Kidney (one)",[2]; 120 min,5.69 ± 0.75 % Injected Dose per Gram Tissu
same,"% Injected Dose per Gram Tissue, Liver",[2]; 120 min,1.07 ± 0.10 % Injected Dose per Gram Tissu
same,"% Injected Dose per Gram Tissue, Lungs",[2]; 120 min,0.53 ± 0.06 % Injected Dose per Gram Tissu
same,"% Injected Dose per Gram Tissue, Spleen",[2]; 120 min,0.99 ± 0.18 % Injected Dose per Gram Tissu
same,"% injected dose in heart, 2 h",[2],0.65 ± 0.05 % injected dose
same,Heart/Blood,"[2]; ratio, 1 min",1.22 ± 0.08
same,Heart/Liver,"[2]; ratio, 1 min",0.24 ± 0.03
same,Heart/Lungs,"[2]; ratio, 1 min",0.85 ± 0.10
same,Heart/Blood,"[2]; ratio, 5 min",2.36 ± 0.25
same,Heart/Liver,"[2]; ratio, 5 min",0.23 ± 0.02
same,Heart/Lung,"[2]; ratio, 5 min",1.05 ± 0.19
same,Heart/Blood,"[2]; ratio, 15 min",4.54 ± 0.31
same,Heart/Liver,"[2]; ratio, 15 min",0.28 ± 0.04
same,Heart/Lungs,"[2]; ratio, 15 min",1.29 ± 0.05
same,Heart/Blood,"[2]; ratio, 120 min",9.21 ± 1.12
same,Heart/Liver,"[2]; ratio, 120 min",0.86 ± 0.18
same,Heart/Lungs,"[2]; ratio, 120 min",1.74 ± 0.35
